The values below come from patent publication US8178490B2, “Polybasic bacterial efflux pump inhibitors and therapeutic uses thereof” (priority 2007, dated 2012).

≈ marks a conversion by molar mass, not a printed value.

Data set [1] concerns Klebsiella pneumoniae KPM1007 which lacks efflux. Kind of data set: microbe, parasite or virus in culture. Format: cell-based. Particulars: read-out: Azithromycin MIC.
The subject of data set [2] is Klebsiella pneumoniae KPM1004 overexpressing the AcrABTolC efflux pump. The data set can be described thus: microbe, parasite or virus in culture. Format: cell-based. An excerpt: (§1) EPI activity is defined as concentration of an EPI compound that is necessary to achieve ½ of a maximum theoretical effect in increase of antibiotic susceptibility due to efflux inhibition. The maximum theoretical effect, Emax, is defined as a ratio of antibacterial activity of antibiotics (minimal inhibitory concentration, MIC) of pump overexpressing vs. pump lacking strains. […] The strain PAM1723, overexpressing the MexABOprM efflux pump was used as a test strain. […] Azithromycin was used as test antibiotic to assess the EPI activity in Klebsiella pneumoniae. The strain KPM1004 overexpressing the AcrABTolC efflux pump was used as a test strain. […] Thus, EPI activity, that is assessed in K. pneumoniae, is a concentration of an EPI compound that is necessary to increase susceptibility to azithromicin of KPM1004 sixteen fold.
(§2) The EPI activity of the test compounds was assessed by the checkerboard assay (Antimicrobial Combinations, Antibiotics in Laboratory Medicine, Ed. Victor Lorian, M.D., Fourth edition, 1996, pp 333338, which is incorporated herein by reference in its entirety) using a broth microdilution method performed as recommended by the NCCLS (National Committee for Clinical Laboratory Standards (NCCLS), 1997, Methods for Dilution of Antimicrobial Susceptibility Tests for Bacteria That Grow Aerobically, Fourth Edition; Approved Standard. NCCLS Document M7A4, Vol 17 No. 2, which is incorporated herein by reference in its entirety). […] All EPI compounds were readily soluble in water and stock solutions were prepared at a final concentration of 10 mg/ml. Stock solutions were further diluted, according to the needs of the particular assay, in Mueller Hinton Broth (MHB). Stock solution was stored at −80° C. The checkerboard assay was performed in microtiter plates. […] EPIs were diluted in the axis, each row containing a single concentration of an EPI. […] The assay was performed in MHB with a final bacterial (PAM1723 or […]) inoculum of 5 times 10^5 CFU/ml (from an early log phase culture). Microtiter plates were incubated during 20 h at 35° C. and were read using a microtiter plate reader (Molecular Devices) at 650 nm as well as visual observation using a microtiter plate reading mirror.
(§3) Azithromycin potentiation activities of selected inhibitors for K. pneumoniae are reported as MPC16 values.

Data set [3] relates to P. aeruginosa PAM1723, overexpressing the MexABOprM efflux pump. Type of data set: cell-based, Pseudomonas aeruginosa. To be noted: lowest inhibitor concentration giving antibacterial activity with levofloxacin at 1/8 of its MIC.
Text: as §1, §2, §3

Data set [4] in a line: Rat serum pharmacokinetics after 1.5-hour IV infusion. Format: in vivo. To be noted: […] IV infusion in 0.9% saline, total dose 2, 5, 10 or 20 mg/kg, two-compartment model. How it is done:
In the experiment depicted in Table 7, above, rat serum pharmacokinetics of selected inhibitor compounds was evaluated after 1.5-hour IV infusion of 1.5 ml solution of corresponding efflux pump inhibitor in 0.9% saline. Depending on the concentration used the total infused dose was 2, 5, 10 or 20 mg/kg. A two-compartment model was used to fit the data and calculate PK parameters.

For `CC[C@H]1OC(=O)[C@H](C)[C@@H](O[C@H]2C[C@@](C)(OC)[C@@H](O)[C@H](C)O2)[C@H](C)[C@@H](O[C@@H]2O[C@H](C)C[C@H](N(C)C)[C@H]2O)[C@](C)(O)C[C@@H](C)CN(C)[C@H](C)[C@@H](O)[C@]1(C)O` [Azithromycin, reference compound], the MIC in data set [1] came to 0.125 µg/mL (≈ 0.167 µM); in data set [2] (Klebsiella pneumoniae, read-out: Azithromycin MIC), 32 µg/mL. Further, the “Emax (ratio of MIC of pump overexpressing vs. pump lacking strains)” value in data set [2] (azithromycin, KPM1004 vs KPM1007) came out at 256.
In the case of “3-[(1S)-3-[bis(2-azaniumylethyl)carbamoyl]-1-{[(1S,2R)-1-carbamoyl-2-hydroxy-2-[4-(trifluoromethyl)phenyl]ethyl]carbamoyl}propan-1-aminium]quinolin-1-ium tetrachloride [Compound 3]”, the “MPC8 (μg/mL) (Levofloxacin, PAM1723)” value in data set [3] was found to be 1.25 µg/mL. Further, in data set [4], the pharmacokinetic profile result was “particularly attractive pharmacokinetic profiles”. Besides, in data set [2] (lowest inhibitor concentration giving antibacterial activity with azithromycin at 1/16 of its MIC, K. pneumoniae KPM1004), the “MPC16 (μg/mL) Azithromycin, KPM1004)” value was 1.25 µg/mL.
